Laboratory results published in patent US10966962B2, “Method for treating neurodegenerative diseases” (THE BOARD OF TRUSTEES OF THE LELAND STANFORD JUNIOR …, priority 2014, dated 2021).

What was measured:
[1] = test system: MPTP-treated animals; assay: Wheel-running test in MPTP model of PD; format: in vivo, mice; details: 25 mg/kg orally 7 days, accelerating speed 5-15 rpm, Day 8
Description: The wheel-running test has been widely used as one of the most reliable measurements of behavioral dysfunction in animal models of neurodegeneration ([…] et al, Behav Brain Res, 125:109-25, 2001). In this study, animals were trained to run on a treadmill at specific speed and training duration before undergoing a formal test of motor skills. Motor performance of animals was evaluated by the time (seconds) that they remained running on the treadmill, which required motor coordination and strength. […] Animals with microglia-specific deletion of Ppargc1a were generated as described in Example 1. At 7 weeks of age, these animals were subjected to 1.5 weeks of training on a treadmill at a constant speed 10 rpm (rotations per minute) and then 1.5 weeks of training at an accelerating speed from 5-15 rpm. After the training period at 10 weeks of age, animals were treated with MPTP and tested for motor performance at an accelerating speed from 5-15 rpm. […] Unpaired t-tests were used for statistical analyses.

[2] = test system: microglia; assay: Microglial metabolic phenotyping in MPTP-treated animals (Slc2a1 flow cytometry, ex vivo lactic acid production); design: species or system mice; details: 3 oral doses
Source text: For measuring microglial expression of glucose transporter Slc2a1, MPTP-ZLN (n=10), MPTP-Ctrl (n=14), and Veh animals (n=14) were sacrificed. Brain microglia were phenotyped with antibody directed against glucose transporter Slc2a1 (RnD) for flow cytometric acquisition (LSRII, BD) and analysis (FlowJo). For measuring microglial glycolysis, MPTP-ZLN (n=8), MPTP-Ctrl (n=6), and Veh animals (n=6) were sacrificed. Microglia were sorted by flow cytometry and subjected to lactic acid production assays ex vivo (Cayman Chem) for glycolysis measurement. Y-axis represents Slc2a1 expression in median fluorescence units (MFI, A) and lactic acid production in micromolar units ([…], B). […] ANOVA was used for statistical analyses.

[3] = test system: STZ-treated mice; assay: Disease severity in acute STZ model of AD; format: in vivo; details: STZ-ZLN mice
Description: To induce symptoms of AD, STZ (3 mg/kg, Sigma) was administered via intracerebral injection ([…] et al, Int J Neurosci, PMID 24494726, 2014). This is a well-established model of the sporadic form of AD. Briefly, animals were anesthetized and STZ solution in 5 μl artificial cerebrospinal fluid (Harvard Apparatus) was injected through the skull with a 50 μl syringe. Control animals received a similar volume of artificial cerebrospinal fluid without STZ. The injections were performed twice, on Day 1 and Day 3. […] Treatment with ZLN005 continued on a daily schedule until Day 4, when the animals were evaluated. […] In contrast, in STZ-Ctrl mice, only 10% were active, 70% were lethargic, and 20% of these animals had hind limb paralysis. […] The inventors designed a disease scoring system based on evidence of tissue inflammation: with scores of 1 (mild inflammation, increased vascularization/bleeding of internal organs), 2 (moderate inflammation, severe vascularization/bleeding of internal organs), and 3 (severe inflammation, intestinal or stomach swelling). […] The disease score presented in the example is the total score of the two scoring systems. […] Unpaired t-test was used for statistical analysis.

[4] = test system: microglia; assay: Microglia flow cytometry in acute STZ model of AD (TNF-α, ThioltrackerViolet, MitotrackerRed); format: in vivo, mice
Description: To induce symptoms of AD, STZ (3 mg/kg, Sigma) was administered via intracerebral injection ([…] et al, Int J Neurosci, PMID 24494726, 2014). This is a well-established model of the sporadic form of AD. Briefly, animals were anesthetized and STZ solution in 5 μl artificial cerebrospinal fluid (Harvard Apparatus) was injected through the skull with a 50 μl syringe. Control animals received a similar volume of artificial cerebrospinal fluid without STZ. The injections were performed twice, on Day 1 and Day 3. […] Treatment with ZLN005 was continued on a daily schedule until Day 7. […] Microglia were phenotyped with antibodies directed against mouse TNF-α (Biolegend) and metabolic dyes […], and MitotrackerRed (Invitrogen) for flow cytometric acquisition (LSRII, BD) and analysis (FlowJo). […] ANOVA was used for statistical analyses.

[5] = test system: brains of STZ-treated-animals; assay: Gene expression in brain in acute STZ model of AD; format: in vivo, mice; details: 25 mg/kg orally daily until Day 4
Description: To induce symptoms of AD, STZ (3 mg/kg, Sigma) was administered via intracerebral injection ([…] et al, Int J Neurosci, PMID 24494726, 2014). This is a well-established model of the sporadic form of AD. Briefly, animals were anesthetized and STZ solution in 5 μl artificial cerebrospinal fluid (Harvard Apparatus) was injected through the skull with a 50 μl syringe. Control animals received a similar volume of artificial cerebrospinal fluid without STZ. The injections were performed twice, on Day 1 and Day 3. […] Treatment with ZLN005 was continued on a daily schedule until Day 4.

[6] = test system: DLB transgenic animals; assay: Wheel-running test in DLB transgenic animals (SNCA*A53T); format: in vivo, mice; details: 25 mg/kg orally 3 times a week for 12 weeks
Description: […] transgenic mice, an animal model in which the mutated form of human alpha synuclein is overexpressed, were generated to study pathological mechanisms in PD and DLB (Lee et al, Proc Natl Acad Sci USA. 2002, 13:8968-8970). […] DLB transgenic animals were purchased from Jackson Laboratories and were orally treated 3 times a week with 0.5% methylcellulose (Ctrl) or ZLN005 (ZLN) at 25 mg/kg in vehicle, starting at 8 weeks of age for 12 weeks. Subsequently, at 20 weeks of age, these animals were subjected to 1.5 weeks of training on a treadmill at a constant speed 10 rpm and then 1.5 weeks of training at an accelerating speed from 5-15 rpm, similar to those described in Example 8. After the training period at 21.5 and 23 weeks of age, animals were tested for motor performance at a constant speed and at an accelerating speed, respectively. DLB-ZLN mice (n=11) show an increase in latency to fall in comparison to DLB-Ctrl mice (n=9) at a constant speed of 10 rpm (271.5 seconds vs. 252.8 seconds). […] Thus, motor dysfunction of DLB mice was alleviated by ZLN005 treatment. Unpaired t-tests were used for statistical analyses.

[7] = STZ-treated animals, 25 mg/kg orally daily until Day 7

In the case of `CC(C)(C)c1ccc(-c2nc3ccccc3[nH]2)cc1` [ZLN005, 2-(4-tert-butylphenyl)-1H-benzimidazole], the “latency to fall, wheel running” value ([1]; MPTP-treated Cre animals) is reported as “not present in Cre animals”, the “latency to fall, wheel running” value ([1]; MPTP-treated FF animals) is reported as “performed significantly better than vehicle treated mice” and the “lactic acid production in microglia” value ([2]; Day 4, ex vivo, vs MPTP-Ctrl) is reported as “decreased”. For the same compound, the “glucose transporter Slc2a1 expression in microglia” value ([2]; Day 4, vs MPTP-Ctrl) was “decreased”, the animals active ([3]; 25 mg/kg orally daily, Day 4) was 33% and the animals paralyzed ([3]; 25 mg/kg orally daily, Day 4) was “none”. The “animals showing evidence of lethargy” value ([3]; 25 mg/kg orally daily, Day 4) was 66%, the mean disease score ([3]; day 4, total of inflammation and physical activity scores) was 1.6 and the “TNF-α production in microglia” value [4, 7] was “suppressed TNF-α production”. The “mitochondrial potential in microglia (MitotrackerRed)” value [4, 7] was “enhanced”, the “production of glutathione in microglia (ThioltrackerViolet)” value [4, 7] was “enhanced” and the glycolysis in microglia ([4]; microglia isolated from STZ-treated animals) was “enhanced glycolysis”. The “expression of genes involved in Ppargc1a signaling and antioxidant defense (Tfam, Cytc) in the brain” value [5] was “increased expression”, the “expression of genes involved in β-amyloid generation (App and Psen1) in the brain” value [5] was “decreased the expression” and the latency to fall ([6]; accelerating speed 5-15 rpm, p <0.05 vs Ctrl) was 194.0 s. For the same compound, the latency to fall ([6]; constant speed 10 rpm, difference to Ctrl not statistically significant) was 271.5 s.
